For assay [1] the following is noted: stated as known; cited from earlier work.
Assay [2] can be described thus: Antioxidant activity against peroxynitrite radicals (proteolytic action on target protein, FIG. 2B). In kind it is biochemical. Particulars: prevention of degradation of target protein. The text has this: FIG. 2B is a proteolytic action by a peroxynitrite radical.
(§1) Therefore, by coexisting with these antioxidants, the antioxidant effect of IMDP is retained both for hydroxyl radicals and peroxynitrite radicals.

The conditions of assay [3]: stated as known; cited from earlier work. The source holds these as a separate data set.
Assay [4] in a line: Antioxidant activity against hydroxyl radicals (degradation of target protein, FIG. 2A). Particulars: prevention of degradation of target protein. Type of assay: biochemical.
Description: FIG. 2A is a hydroxyl radical, in which 1 is untreated target protein, 2 is no antioxidant added, 3 is IMDP added, 4 is vitamin C added, 5 is ferulic acid added, 6 is IMDP+vitamin C+ferulic acid added; and
as §1

Turning to `CC1=C(/C=C/C(C)=C/C=C/C(C)=C/C=C/C=C(C)/C=C/C=C(C)/C=C/C2=C(C)C(=O)[C@@H](O)CC2(C)C)C(C)(C)C[C@H](O)C1=O` [astaxanthin], in assay [1], the “antioxidant activity against hydroxyl radicals (known)” value is listed as “strong antioxidant activity”.

`O=C1O[C@H]([C@@H](O)CO)C(O)=C1O` [vitamin C]: in assay [2], the “antioxidant activity against peroxynitrite radicals” value is recorded as “strong antioxidant activity”. Moreover, the “antioxidant activity against peroxynitrite radicals (known)” value in assay [3] is on record as “strong antioxidant activity”. As for `COc1cc(/C=C/C(=O)O)ccc1O` [ferulic acid], the “antioxidant activity against hydroxyl radicals” value in assay [4] was “strong antioxidant activity”. For vitamin E, in assay [1], the “antioxidant activity against hydroxyl radicals (known)” value is reported as “strong antioxidant activity”.

The values above are taken from patent US20210015886A1, “COMPOSITION FOR IMPROVING MILD COGNITIVE IMPAIRMENT AND METHOD FOR IMPROVING MILD COGNITIVE IMPAIRMENT” (TOKAI BUSSAN CO., LTD., priority 2019, published 2021).
